Entries after “also recorded” stand apart in the source; their conditions may differ.
Legend:
[1] = tested on: frataxin deficient fibroblasts (Friedreich's ataxia patient fibroblast cell line GM03665); assay: Frataxin deficient fibroblast viability assay (the BSO Assay); assay type: cell-based, human; details: for EC50: Homo sapiens, Fibroblast, FA patient fibroblasts pretreated with drug 250 nM down to 6.125 nM the day before BSO 10 mM, MTT 48 hrs later; for BSO assay activity compared with vatiquinone (in words) / protection against ferroptosis (in words): summary of Table 1 BSO assay data
Experimental: Example 6: Frataxin Deficient Fibroblast Viability Assay (the “BSO Assay”)
This Example was used to evaluate the various new compositions for their potential efficacy in the treatment of Friedreich's Ataxia (FA or FRDA) based on their potential to inhibit ferroptosis based on this BSO assay—performed substantially as described in the above cited Reference (Matthias et al.).
The stock solutions of the test articles (and control compounds) were prepared in dimethyl sulfoxide (DMSO at 10 mM). Working stock solutions (2 times concentrated) were prepared on the day of the experiment in respective cell culture medium to be used for assay (detailed medium description below). A listing of compounds used as test articles in this Example 12 are found in Table 1, below.
A patient derived frataxin deficient fibroblast cell line was obtained from Coriell Institute. More specifically, the following cell lines/DNA samples were obtained from the NIGMS Human Genetic Cell Repository at the Coriell Institute for Medical Research: GM03665. To evaluate importance of various growth conditions on cell susceptibility to BSO toxicity cells were grown on:
MEM (Sigma-Aldrich) 15% Fetal Bovine Serum (FBS) without growth factors;
MEM (Sigma-Aldrich) 15% FBS with growth factors (Catalogue number 100-18B, Recombinant Human FGF-basic (154 a.a.) and catalogue number AF-100-15, Animal-Free Recombinant Human EGF from Peprotech);
MEM199/MEM EBS (Bioconcept Ltd.) 10% FBS, insulin 10 μg/ml, L-glutamine 2 mM with growth factors (Catalogue number 100-18B, Recombinant Human FGF-basic (154 a.a.) and catalogue number AF-100-15, Animal-Free Recombinant Human EGF from Peprotech).
To conduct an experiment, fibroblast cells (from all growth conditions) were seeded (100 μL (cells 3×10∧3/well) on 96-well plates in MEM199/MEM EBS medium 10% FBS, insulin 10 μg/mL, L-glutamine 2 mM with growth factors and allowed to grow on plate for 24 hrs. After 24 hrs., media was removed and then test compounds of interest were added (100 μL, 2 times concentrated stock) to 96-well plates (end DMSO concentration not exceeding 0.5%) and incubated for 24 hours. Then L-buthionine-sulfoximine (BSO, from Acros Organics, Cat. No. 235520010) was added (100 μL, 2 times concentrated stock) at end concentrations ranging from 1 to 10 mM. Both test compounds and BSO were dissolved in MEM199/MEM EBS medium 10% FBS, insulin 10 μg/mL, L-glutamine 2 mM with growth factors. Cell viability was monitored and either after 24- or 48-hours cell viability was assayed by MTT (Thiazolyl blue tetrazolium bromide) assay. For the MTT assay, media was removed and 100 μL of MTT 1 mg/mL was added, incubated for 2 hours at +37° C., then medium was removed and 100 μL of isopropanol added to dissolve sediment. Absorption was measured at 570 (OD570) and 650 (OD650) nm wavelengths. Control cells (vehicle instead of BSO and compound) and vehicle control (with BSO, but vehicle instead of test compound) were treated in the same manner as cells with BSO and compound. All cell media contained penicillin and streptomycin 100 U/mL each.
Absorption readouts were processed as follows: ValueΔ=ValueOD570-ValueOD650 and the obtained values were used to calculate cell viability as % of control cell (i.e., no BSO, no compound, just vehicle) viability.
Except as otherwise indicated in Table 1, all samples were run in at least 3 replicates for test compounds and at least 8 replicates for controls (i.e., both control (no BSO, no compound) and vehicle control (i.e., with BSO, no compound). Exact N per data points are indicated in the figures/table legends. Results for the compounds (test articles and controls) tested are listed in Table 1, below.
This is a cell-based assay measuring cytotoxicity which results from oxidative stress subsequent to depletion of endogenous glutathione defense mechanisms. […]

[2] = Concentration of therapeutic agents in blood and brain tissue in rat following oral administration; assay type: in vivo; details: male SD rats; for Brain level: perfused brain homogenate; for Cmax: male, Sprague-Dawley, rat, plasma, po, 10 mg/kg; for drop in plasma concentration relative to the next larger compound pair: 2-1/3-1 vs vatiquinone/1-1, 4-1/5-1 vs 2-1/3-1; for brain level (in words): summary of Table 1 brain concentration data
Experimental: Example 7: Study of Concentration of Therapeutic Agents in Blood and Brain Tissue in Rat Following Oral Administration
This study was intended to examine and compare the concentration of the various therapeutic agents tested in blood and brain tissue shortly after oral administration to rats.
The experimental procedures were carried out in accordance with the guidelines of the European Community and local laws and policies and were approved by the Latvian Animal Protection Ethical Committee, Food and Veterinary Service, Riga, Latvia. Animals were housed in the animal facilities at the Latvian Institute of Organic Synthesis (LIOS) under standard conditions (21-23° C., 12 h light-dark cycle) with unlimited access to food (R70 diet, Lantmännen Lantbruk, Sweden) and water. Male Sprague Dawley (SD) rats (8 weeks old at the time of purchase, from Envigo) were used for the study and were allowed an acclimatization period of at least 1 week prior to treatment. No drugs or vaccines were administered before the start of the study. Only healthy animals were included in the study. Animals were weighed on the day of treatment (before treatment) to calculate the required volume of working solution of compound (i.e. therapeutic agent) administered. No drugs except the therapeutic agent to be tested were administered during the study. Rats were dosed orally with compound (1 times weight μL, solution 10 mg/mL, dissolved in sesame oil).
Animals were anaesthetized using 5% isoflurane inhalation at selected time points after administration of test compounds. Then chest was opened and blood drawn from the heart and collected in EDTA coated microtubes (Sarstedt). Transcardial perfusion was performed afterwards by perfusing ice-cold PBS solution for 4 minutes, ˜55 mL total perfusion volume. Afterwards brain tissues were collected in microtubes and frozen in liquid nitrogen. Blood was centrifuged for 3 min at 10000 g within 15 minutes of collection. Plasma was collected in low-binding microtubes (Nerbe plus) by adding 95 μL of plasma to 5 μL of 2% HCOOH to obtain 100 μL of plasma solution with HCOOH end concentration 0.1%. Plasma was frozen in liquid nitrogen and stored at −80° C.
Tissue samples were weighed in 2 mL micro centrifuge tubes. Microtubes were kept on ice throughout the procedure. Tissue homogenates were prepared using acidified (0.1% HCOOH) water by adding 4 times volume to weighed samples. Two metal beads were placed in each micro centrifuge tube and brain tissues homogenized using Bead Ruptor (Omni International, USA) for 60 s using speed 4 ms per cycle. Homogenates (96 uL) were transferred to 1.5 mL low binding micro centrifuge tubes. Homogenates were frozen and kept at −80° C. until sample extraction for LC/MS/MS analysis.
Extraction of spiked SD Rat EDTA plasma or brain homogenate standards was performed by adding to 100 μL of spiked rat plasma or brain homogenate standard sample of 400 μL of deproteinization solution, 1% formic acid in MeOH with IS (reserpine 15 ng/mL). Samples were vortex mixed for 10 sec at 2800 rpm and incubated on orbital shaker for 10 min at 200 rpm. Then vortex mixed for 10 sec at 2800 rpm and centrifugated at 12000 rpm for 30 min in 5° C. Supernatants were transferred to LC vials and used for analysis. Extraction of rat EDTA plasma or brain homogenate analytical samples was performed by adding to 96 μL of rat plasma or brain homogenate analytical sample of 4 μL of DMSO, vortex mix the samples. Then 400 μL of deproteinization solution, 1% formic acid in MeOH with IS (reserpine 15 ng/mL) were added. Samples were vortex mixed for 10 sec at 2800 rpm and incubated on orbital shaker for 10 min at 200 rpm. Then vortex mixed for 10 sec at 2800 rpm and centrifugated at 12000 rpm for 30 min in 5° C. Supernatants were transferred to LC vials and used for analysis.
Data collected for each of the various therapeutic agents tested (i.e. vatiquinone and Compounds 1-1, 2-1, 3-1, 4-1 and 5-1 are summarized in Table 1, below.

[3] = 10 mg/mL solution in sesame oil, LC/MS/MS
[4] = 10 mg/mL solution in sesame oil, EDTA plasma, LC/MS/MS

SMILES | Brain level [2, 3] | Cmax [2, 4] | drop in plasma concentration relative to the next larger compound pair [2] | Plasma Cmax [2, 4] | EC50 [1] | BSO assay activity compared with vatiquinone (in words) [1] | protection against ferroptosis (in words) [1] | brain level (in words) [2]
CC(C)=CCC/C(C)=C/CC[C@@](C)(O)CCC1=C(C)C(=O)C(C)=C(C)C1=O [Compound 2-1, (R,E)-2-(3-hydroxy-3,7,11-trimethyldodeca-6,10-dien-1-yl)-3,5,6-trimethylcyclohexa-2,5-diene-1,4-dione] | 24.5 ng/g | ~100 ng/mL | ~5 fold |  | 141 nM | not quite as effective as vatiquinone | protective against ferroptosis | comparable to those observed with vatiquinone
CC(C)=CCC/C(C)=C/CC[C@](C)(O)CCC1=C(C)C(=O)C(C)=C(C)C1=O [Compound 3-1, (S,E)-2-(3-hydroxy-3,7,11-trimethyldodeca-6,10-dien-1-yl)-3,5,6-trimethylcyclohexa-2,5-diene-1,4-dione] | 22.0 ng/g | ~100 ng/mL | ~5 fold |  | 41.2 nM | as good as vatiquinone | protective against ferroptosis | comparable to those observed with vatiquinone
CC(C)=CCC[C@@](C)(O)CCC1=C(C)C(=O)C(C)=C(C)C1=O [Compound 4-1, (R)-2-(3-hydroxy-3,7-dimethyloct-6-en-1-yl)-3,5,6-trimethylcyclohexa-2,5-diene-1,4-dione] | 0 ng/g | 5.5 ng/mL | ~20 fold |  | 90.5 nM | not quite as effective as vatiquinone | protective against ferroptosis | no concentration of these compounds detected
CC(C)=CCC[C@](C)(O)CCC1=C(C)C(=O)C(C)=C(C)C1=O [Compound 5-1, (S)-2-(3-hydroxy-3,7-dimethyloct-6-en-1-yl)-3,5,6-trimethylcyclohexa-2,5-diene-1,4-dione] | 0 ng/g | 3.2 ng/mL | ~20 fold |  | 39 nM | as good as vatiquinone | protective against ferroptosis | no concentration of these compounds detected

Now from value to compound, other results behind:

Brain level [2, 3] | Cmax [2, 4] | drop in plasma concentration relative to the next larger compound pair [2] | Plasma Cmax [2, 4] | SMILES | EC50 [1] | BSO assay activity compared with vatiquinone (in words) [1] | protection against ferroptosis (in words) [1] | brain level (in words) [2]
8.3 ng/g | ~500 ng/mL |  |  | CC(C)=CCC/C(C)=C/CC/C(C)=C/CC[C@](C)(O)CCC1=C(C)C(=O)C(C)=C(C)C1=O [Compound 1-1, 2-[(3S,6E,10E)-3-hydroxy-3,7,11,15-tetramethyl-6,10,14-hexadecatrien-1-yl]-3,5,6-trimethyl-2,5-cyclohexadiene-1,4-dione] | 16.6 nM | at least equivalent to that of vatiquinone; also recorded: as good as vatiquinone | protective against ferroptosis | 
20.8 ng/g | ~500 ng/mL |  | 457 ng/mL | CC(C)=CCC/C(C)=C/CC/C(C)=C/CC[C@@](C)(O)CCC1=C(C)C(=O)C(C)=C(C)C1=O [vatiquinone, 2-[(3R,6E, 10E)-3-Hydroxy-3,7,11,15-tetramethyl-6,10,14-hexadecatrien-1-yl]-3,5,6-trimethyl-2,5-cyclohexadiene-1,4-dione, reference compound] | 40.7 nM |  | protective against ferroptosis | 

— patent US20240293339A1, “COMPOUNDS, COMPOSITIONS AND METHODS FOR THE PREVENTION AND/OR TREATMENT OF VARIOUS MITOCHONDRIAL DISEASES OR DISORDERS, INCLUDING FRIEDREICH'S ATAXIA” (Stealth Bio Therapeutics Inc., priority 2021, published 2024)
